According to ChEMBL document CHEMBL1201862, “PubChem BioAssay data set” (2004):
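Step 1: Grow cells in 96-well plates. Step 2: Expose to compound for 48 hours at 5 concentrations. Step 3: Interpolate endpoints linearly; if unreached, use highest concentration. Here, GI50 denotes the concentration required for 50% inhibition of growth.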 Active and inactive are the calls of the source. No stated cut-off is given here; in the data, active = GI50 up to about 1.1 µM and inactive = higher.

Tests used:
Experiment in all cases: inhibition of tumour cell growth, NCI panel, 48 h
ACHN = system: ACHN
HCC 2998 = system: HCC 2998
HCT-116 = system: HCT-116
HCT-15 = system: HCT-15
HL-60 = system: HL-60
M14 = system: M14
MOLT-4 = system: MOLT-4
Malme-3M = system: Malme-3M
NCI-H460 = system: NCI-H460
OVCAR-8 = system: OVCAR-8
RXF 393 = system: RXF 393
SK-OV-3 = system: SK-OV-3
SW-620 = system: SW-620
UACC-62 = system: UACC-62
UO-31 = system: UO-31
PC-3 = system: PC-3
T47D = system: T47D
DU-145 = system: DU-145
BT-549 = system: BT-549

| SMILES | GI50 (ACHN) | GI50 (HCC 2998) | GI50 (HCT-116) | GI50 (HCT-15) | GI50 (HL-60) | GI50 (M14) | GI50 (MOLT-4) | GI50 (Malme-3M) | GI50 (NCI-H460) | GI50 (OVCAR-8) | GI50 (RXF 393) | GI50 (SK-OV-3) | GI50 (SW-620) | GI50 (UACC-62) | GI50 (UO-31) | GI50 (PC-3) | GI50 (T47D) | GI50 (DU-145) | GI50 (BT-549) |
| --- | --- | --- | --- | --- | --- | --- | --- | --- | --- | --- | --- | --- | --- | --- | --- | --- | --- | --- | --- |
| CC(=O)NNc1nc(C)c(C(/C=C/c2ccc(/C=C/C(=N\NC(=O)c3ccncc3)c3sc(NNC(C)=O)nc3C)cc2)=N/NC(=O)c2ccncc2)s1 | > 100 µM (inactive) | > 100 µM (inactive) | > 100 µM (inactive) | > 100 µM | > 100 µM (inactive) | 41.7 µM (inactive) | > 100 µM (inactive) | > 100 µM (inactive) | > 100 µM (inactive) | > 100 µM (inactive) | > 100 µM (inactive) | > 100 µM (inactive) | > 100 µM (inactive) | > 100 µM (inactive) | > 100 µM (inactive) |  |  |  |  |
| Cc1c(C(=O)C(=O)c2ccccc2)c(C)c(C(=O)C(=O)c2ccccc2)c(C)c1C(=O)C(=O)c1ccccc1 | > 100 µM (inactive) | > 100 µM (inactive) | > 100 µM (inactive) | > 100 µM | > 100 µM (inactive) | > 100 µM (inactive) | > 100 µM (inactive) |  | > 100 µM (inactive) | > 100 µM (inactive) |  | > 100 µM (inactive) | > 100 µM (inactive) |  | > 100 µM (inactive) | > 100 µM (inactive) | > 100 µM (inactive) |  |  |
| O=C1C[C@@]23CCC4(CC2=CCC[C@H]3O1)OCCO4 | > 100 µM (inactive) | > 100 µM (inactive) | > 100 µM (inactive) | > 100 µM | > 100 µM (inactive) | > 100 µM (inactive) | > 100 µM (inactive) | > 100 µM (inactive) | > 100 µM (inactive) |  | > 100 µM (inactive) | > 100 µM (inactive) | > 100 µM (inactive) | > 100 µM (inactive) |  | > 100 µM (inactive) | > 100 µM (inactive) | > 100 µM (inactive) |  |
| C/C(CC(=O)Nc1cccc([N+](=O)[O-])c1)=N/NC(N)=S | > 100 µM (inactive) | > 100 µM (inactive) | > 100 µM (inactive) |  | > 100 µM (inactive) | > 100 µM (inactive) | > 100 µM (inactive) | > 100 µM (inactive) | > 100 µM (inactive) | > 100 µM (inactive) | > 100 µM (inactive) | > 100 µM (inactive) | > 100 µM (inactive) | > 100 µM (inactive) | > 100 µM (inactive) |  |  |  |  |
| c1ccc(C2CC(NC3CCCCC3)=Nc3ccccc3N2)cc1 (stereo unspecified) | > 100 µM (inactive) |  | 73.5 µM (inactive) | 94.2 µM | 25.8 µM (inactive) | 27.4 µM (inactive) | 17.7 µM (inactive) | 15.6 µM (inactive) | 46.9 µM (inactive) | > 100 µM (inactive) | 31.7 µM (inactive) | > 100 µM (inactive) | > 100 µM (inactive) | 31.2 µM (inactive) | > 100 µM (inactive) | 33.6 µM (inactive) |  | > 100 µM (inactive) | 54.8 µM (inactive) |
| Cc1nc2ccc(S(=O)(=O)Nc3ccccc3Cl)cc2c(=O)n1NC(=O)CNc1ccccc1Cl | > 100 µM (inactive) | > 100 µM (inactive) | > 100 µM (inactive) | > 100 µM | > 100 µM (inactive) | > 100 µM (inactive) | > 100 µM (inactive) | > 100 µM (inactive) | > 100 µM (inactive) | > 100 µM (inactive) |  | > 100 µM (inactive) | > 100 µM (inactive) | > 100 µM (inactive) | > 100 µM (inactive) | > 100 µM (inactive) |  | > 100 µM (inactive) | > 100 µM (inactive) |
| Cc1nn(-c2ccccc2)c2nc3ccc(Cl)cc3c(-c3ccccc3)c12 | > 100 µM (inactive) | > 100 µM (inactive) | > 100 µM (inactive) | > 100 µM |  | > 100 µM (inactive) | > 100 µM (inactive) | > 100 µM (inactive) | > 100 µM (inactive) | > 100 µM (inactive) |  | > 100 µM (inactive) | > 100 µM (inactive) | > 100 µM (inactive) | > 100 µM (inactive) | > 100 µM (inactive) | > 100 µM (inactive) | > 100 µM (inactive) | > 100 µM (inactive) |
| O=C(Cn1c(-c2ccccc2)cc2ccccc21)N1CCCC1 | > 100 µM (inactive) |  | > 100 µM (inactive) | > 100 µM |  | > 100 µM (inactive) | > 100 µM (inactive) | > 100 µM (inactive) | > 100 µM (inactive) | > 100 µM (inactive) |  | > 100 µM (inactive) | > 100 µM (inactive) | > 100 µM (inactive) | > 100 µM (inactive) | > 100 µM (inactive) | > 100 µM (inactive) | > 100 µM (inactive) | > 100 µM (inactive) |
| CCOC(=O)c1ccc(NC(=O)O/N=C(/Cl)CCl)cc1 | 12.6 µM (inactive) | > 10 µM (inactive) | 50.1 µM (inactive) | 5.57 µM | 24.2 µM (inactive) |  | 33.6 µM (inactive) | 81.1 µM (inactive) | 47.9 µM (inactive) | 41 µM (inactive) |  | 75.3 µM (inactive) | 50.2 µM (inactive) |  | 45 µM (inactive) | 33.6 µM (inactive) | 34.1 µM (inactive) | 65.3 µM (inactive) |  |
| N#C/C(=C/NC(=S)Nc1ccc(S(N)(=O)=O)cc1)C(N)=O | > 100 µM (inactive) | > 100 µM (inactive) | > 100 µM (inactive) | > 100 µM | 43.7 µM (inactive) | > 100 µM (inactive) | > 100 µM (inactive) | > 100 µM (inactive) | > 100 µM (inactive) | > 100 µM (inactive) | > 100 µM (inactive) | > 100 µM (inactive) | > 100 µM (inactive) | > 100 µM (inactive) |  | > 100 µM (inactive) |  | > 100 µM (inactive) | > 100 µM (inactive) |
| CC1CN=C(N(C(=O)Nc2ccccc2)c2ccccc2)S1 (stereo unspecified) | 37.2 µM (inactive) | 35.9 µM (inactive) | 39.7 µM (inactive) | 37.2 µM | 20 µM (inactive) |  | 19 µM (inactive) | 23 µM (inactive) | 30.1 µM (inactive) | 40.3 µM (inactive) |  | > 100 µM (inactive) | 41.5 µM (inactive) |  | 38.4 µM (inactive) | 36.6 µM (inactive) | 24.9 µM (inactive) | 53.2 µM (inactive) |  |
| CCCCC(C)C(OC(=O)CC(CC(=O)O)C(=O)O)C(CC(C)CC(O)CCCCC(O)CC(O)C(C)N)OC(=O)CC(CC(=O)O)C(=O)O (stereo unspecified) | > 100 µM (inactive) | > 100 µM (inactive) | > 100 µM (inactive) | > 100 µM | > 69.8 µM (inactive) | > 100 µM (inactive) | > 100 µM (inactive) | > 100 µM (inactive) | > 100 µM (inactive) | > 100 µM (inactive) | > 48.8 µM (inactive) | > 100 µM (inactive) | > 100 µM (inactive) | > 100 µM (inactive) | > 100 µM (inactive) |  |  |  |  |
| COc1cc(OC)c(OC)cc1/C=C/c1nc2ccccc2s1 | > 100 µM (inactive) | > 100 µM (inactive) | 25.2 µM (inactive) | > 100 µM | 5.52 µM (inactive) | 17.6 µM (inactive) | 34.2 µM (inactive) | > 100 µM (inactive) | > 100 µM (inactive) | > 100 µM (inactive) | 23.3 µM (inactive) | > 100 µM (inactive) | > 100 µM (inactive) |  | 47.2 µM (inactive) | 5.78 µM (inactive) | 8.45 µM (inactive) | > 100 µM (inactive) |  |
| Cn1ncc2c(NCc3ccccc3)ncnc21 | > 100 µM (inactive) | > 100 µM (inactive) | > 100 µM (inactive) | > 100 µM | > 100 µM (inactive) |  | > 100 µM (inactive) | > 100 µM (inactive) | > 100 µM (inactive) | > 100 µM (inactive) | > 100 µM (inactive) | > 100 µM (inactive) | > 100 µM (inactive) | > 100 µM (inactive) | > 100 µM (inactive) |  | > 100 µM (inactive) | > 100 µM (inactive) | > 100 µM (inactive) |
| O=C1/C(=C/c2ccc(Br)s2)NC(=S)N1c1ccccc1 | 32.1 µM (inactive) | > 100 µM (inactive) | 44.4 µM (inactive) | 80.5 µM | > 100 µM (inactive) |  | > 100 µM (inactive) | 68.1 µM (inactive) | 51.5 µM (inactive) |  | 30.1 µM (inactive) | 45.6 µM (inactive) | > 100 µM (inactive) | 47.2 µM (inactive) | > 100 µM (inactive) | > 100 µM (inactive) |  | > 100 µM (inactive) | 82.6 µM (inactive) |
| COc1ccc(-n2c(=O)n(-c3ccccc3)c(=O)n2-c2ccc(OC)cc2)cc1 | > 100 µM (inactive) | > 100 µM (inactive) | > 100 µM (inactive) | > 100 µM | > 100 µM (inactive) | > 100 µM (inactive) | > 100 µM (inactive) | > 100 µM (inactive) |  | > 100 µM (inactive) | > 100 µM (inactive) | > 100 µM (inactive) | > 100 µM (inactive) | > 100 µM (inactive) | > 100 µM (inactive) | > 100 µM (inactive) | > 100 µM (inactive) | > 100 µM (inactive) |  |
| COc1ccc(Oc2nc3ccc(C(F)(F)F)cc3nc2-c2ccccc2)cc1 | > 100 µM (inactive) | 25.3 µM (inactive) | > 100 µM (inactive) | > 100 µM | 42 µM (inactive) |  | 62.4 µM (inactive) | > 100 µM (inactive) | > 100 µM (inactive) |  | 50.5 µM (inactive) | > 100 µM (inactive) | > 100 µM (inactive) | > 100 µM (inactive) | 1.57 µM (inactive) | > 100 µM (inactive) |  | > 100 µM (inactive) | 0.361 µM (active) |
